Data: ChEMBL document CHEMBL1955751, “Structure-activity relationship of the 7-hydroxy benzimidazole analogs as glycogen synthase kinase 3β inhibitor” (Bioorg Med Chem Lett, 2012)

Experiments:
[1] = molecular target: T1, Glycogen synthase kinase-3 beta (Homo sapiens, UniProt P49841); test: Inhibition of GSK3-beta
Target sequence in this assay (P49841 whole entry): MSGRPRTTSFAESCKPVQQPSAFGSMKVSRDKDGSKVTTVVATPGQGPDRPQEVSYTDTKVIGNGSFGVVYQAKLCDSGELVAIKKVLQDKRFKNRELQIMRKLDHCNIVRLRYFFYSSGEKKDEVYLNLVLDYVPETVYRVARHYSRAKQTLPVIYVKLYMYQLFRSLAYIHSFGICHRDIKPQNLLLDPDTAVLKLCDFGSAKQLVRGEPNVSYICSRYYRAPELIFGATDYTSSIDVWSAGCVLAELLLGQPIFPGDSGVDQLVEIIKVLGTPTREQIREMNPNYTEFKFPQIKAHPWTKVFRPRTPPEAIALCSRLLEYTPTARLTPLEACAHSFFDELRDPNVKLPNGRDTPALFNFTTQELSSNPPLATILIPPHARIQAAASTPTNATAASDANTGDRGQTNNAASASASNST

[2] = molecular target: T1, Glycogen synthase kinase-3 beta; test: Inhibition of GSK3-beta in human RD cells; assay type: cell-based
Target sequence in this assay (P49841 whole entry): as above

[3] = molecular target: T1, Glycogen synthase kinase-3 beta; test: Inhibition of GSK3-beta in human RD cells assessed as glycogen synthase activation measured after 24 hrs under serum starving condition; assay type: cell-based
Target sequence in this assay (P49841 whole entry): as above

[4] = Cytotoxicity against human RD cells by MTS assay; assay type: cell-based; conditions: read-out: CCIC50
[5] = Ratio of CCIC50 for human RD cells to EC50 for GSK3-beta in human RD cells
[6] = molecular target: Mitogen-activated protein kinase 1 (Homo sapiens) (UniProt P28482); test: Inhibition of ERK2 assessed as residual activity at 5 uM
[7] = molecular target: Mitogen-activated protein kinase 3 (Homo sapiens) (UniProt P27361); test: Inhibition of ERK1 assessed as residual activity at 5 uM
[8] = molecular target: T2, Inhibitor of nuclear factor kappa-B kinase subunit beta (Homo sapiens) (UniProt O14920); test: Inhibition of IKK-beta assessed as residual activity at 5 uM
T2 sequence (whole entry): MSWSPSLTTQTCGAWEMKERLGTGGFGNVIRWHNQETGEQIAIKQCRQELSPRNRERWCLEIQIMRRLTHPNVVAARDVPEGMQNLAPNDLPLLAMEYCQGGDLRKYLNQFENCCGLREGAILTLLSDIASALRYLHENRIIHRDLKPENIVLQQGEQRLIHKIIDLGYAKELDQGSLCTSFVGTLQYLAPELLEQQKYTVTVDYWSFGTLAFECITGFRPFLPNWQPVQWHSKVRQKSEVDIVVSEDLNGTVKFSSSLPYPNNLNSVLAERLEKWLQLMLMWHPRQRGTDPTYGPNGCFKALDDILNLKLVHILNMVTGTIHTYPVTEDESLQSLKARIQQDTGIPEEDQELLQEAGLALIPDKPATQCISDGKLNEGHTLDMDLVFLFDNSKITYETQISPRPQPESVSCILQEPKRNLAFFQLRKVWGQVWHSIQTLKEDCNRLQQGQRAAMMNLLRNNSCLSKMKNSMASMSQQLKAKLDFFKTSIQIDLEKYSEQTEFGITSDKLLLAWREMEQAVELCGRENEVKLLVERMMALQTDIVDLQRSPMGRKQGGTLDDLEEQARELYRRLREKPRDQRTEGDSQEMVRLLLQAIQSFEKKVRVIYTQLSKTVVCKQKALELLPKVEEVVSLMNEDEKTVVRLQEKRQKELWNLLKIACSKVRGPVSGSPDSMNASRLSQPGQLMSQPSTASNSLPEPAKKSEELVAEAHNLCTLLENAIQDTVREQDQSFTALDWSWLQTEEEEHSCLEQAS

[9] = molecular target: Vascular endothelial growth factor receptor 2 (Homo sapiens) (UniProt P35968); test: Inhibition of KDR assessed as residual activity at 5 uM
[10] = molecular target: T1, Glycogen synthase kinase-3 beta; test: Inhibition of GSK3-beta assessed as residual activity at 5 uM
Target sequence in this assay (P49841 whole entry, looked up): as the sequence (P49841 whole entry) above

[11] = molecular target: Cyclin-dependent kinase 4 (Homo sapiens) (UniProt P11802); test: Inhibition of CDK4 assessed as residual activity at 5 uM
[12] = Inhibition of AKT assessed as residual activity at 5 uM
[13] = molecular target: Cyclin-dependent kinase 1 (Homo sapiens) (UniProt P06493); test: Inhibition of CDK1 assessed as residual activity at 5 uM
Chain of Cyclin-dependent kinase 1 (Homo sapiens) (P06493 whole entry, looked up): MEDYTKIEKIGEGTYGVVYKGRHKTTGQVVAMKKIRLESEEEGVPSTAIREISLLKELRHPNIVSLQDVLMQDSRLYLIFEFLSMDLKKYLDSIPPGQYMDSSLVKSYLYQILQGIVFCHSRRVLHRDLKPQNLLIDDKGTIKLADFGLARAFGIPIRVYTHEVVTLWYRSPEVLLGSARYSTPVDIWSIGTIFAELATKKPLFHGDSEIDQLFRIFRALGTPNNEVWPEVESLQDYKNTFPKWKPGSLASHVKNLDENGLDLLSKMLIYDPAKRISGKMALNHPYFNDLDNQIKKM

Chain of Mitogen-activated protein kinase 3 (Homo sapiens) (P27361 whole entry): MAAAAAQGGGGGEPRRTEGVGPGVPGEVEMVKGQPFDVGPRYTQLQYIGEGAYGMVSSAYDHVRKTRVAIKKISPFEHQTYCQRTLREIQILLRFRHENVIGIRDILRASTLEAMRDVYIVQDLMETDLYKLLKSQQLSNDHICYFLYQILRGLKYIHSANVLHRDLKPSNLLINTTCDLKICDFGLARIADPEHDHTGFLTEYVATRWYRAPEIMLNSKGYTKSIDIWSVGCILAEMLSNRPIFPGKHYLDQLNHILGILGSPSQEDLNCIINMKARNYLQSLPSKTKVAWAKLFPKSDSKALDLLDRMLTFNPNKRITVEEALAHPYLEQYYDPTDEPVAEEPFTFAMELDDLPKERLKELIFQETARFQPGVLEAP
Chain of Cyclin-dependent kinase 4 (Homo sapiens) (P11802 whole entry): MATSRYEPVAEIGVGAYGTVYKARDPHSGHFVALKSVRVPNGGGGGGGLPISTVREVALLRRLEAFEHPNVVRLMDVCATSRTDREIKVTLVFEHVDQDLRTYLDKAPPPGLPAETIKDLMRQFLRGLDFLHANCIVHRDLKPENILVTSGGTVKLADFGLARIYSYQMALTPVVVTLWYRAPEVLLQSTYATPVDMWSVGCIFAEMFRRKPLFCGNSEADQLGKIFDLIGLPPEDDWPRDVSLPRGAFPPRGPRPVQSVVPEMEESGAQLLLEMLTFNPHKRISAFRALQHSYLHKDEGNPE
Chain of Vascular endothelial growth factor receptor 2 (Homo sapiens) (P35968 whole entry): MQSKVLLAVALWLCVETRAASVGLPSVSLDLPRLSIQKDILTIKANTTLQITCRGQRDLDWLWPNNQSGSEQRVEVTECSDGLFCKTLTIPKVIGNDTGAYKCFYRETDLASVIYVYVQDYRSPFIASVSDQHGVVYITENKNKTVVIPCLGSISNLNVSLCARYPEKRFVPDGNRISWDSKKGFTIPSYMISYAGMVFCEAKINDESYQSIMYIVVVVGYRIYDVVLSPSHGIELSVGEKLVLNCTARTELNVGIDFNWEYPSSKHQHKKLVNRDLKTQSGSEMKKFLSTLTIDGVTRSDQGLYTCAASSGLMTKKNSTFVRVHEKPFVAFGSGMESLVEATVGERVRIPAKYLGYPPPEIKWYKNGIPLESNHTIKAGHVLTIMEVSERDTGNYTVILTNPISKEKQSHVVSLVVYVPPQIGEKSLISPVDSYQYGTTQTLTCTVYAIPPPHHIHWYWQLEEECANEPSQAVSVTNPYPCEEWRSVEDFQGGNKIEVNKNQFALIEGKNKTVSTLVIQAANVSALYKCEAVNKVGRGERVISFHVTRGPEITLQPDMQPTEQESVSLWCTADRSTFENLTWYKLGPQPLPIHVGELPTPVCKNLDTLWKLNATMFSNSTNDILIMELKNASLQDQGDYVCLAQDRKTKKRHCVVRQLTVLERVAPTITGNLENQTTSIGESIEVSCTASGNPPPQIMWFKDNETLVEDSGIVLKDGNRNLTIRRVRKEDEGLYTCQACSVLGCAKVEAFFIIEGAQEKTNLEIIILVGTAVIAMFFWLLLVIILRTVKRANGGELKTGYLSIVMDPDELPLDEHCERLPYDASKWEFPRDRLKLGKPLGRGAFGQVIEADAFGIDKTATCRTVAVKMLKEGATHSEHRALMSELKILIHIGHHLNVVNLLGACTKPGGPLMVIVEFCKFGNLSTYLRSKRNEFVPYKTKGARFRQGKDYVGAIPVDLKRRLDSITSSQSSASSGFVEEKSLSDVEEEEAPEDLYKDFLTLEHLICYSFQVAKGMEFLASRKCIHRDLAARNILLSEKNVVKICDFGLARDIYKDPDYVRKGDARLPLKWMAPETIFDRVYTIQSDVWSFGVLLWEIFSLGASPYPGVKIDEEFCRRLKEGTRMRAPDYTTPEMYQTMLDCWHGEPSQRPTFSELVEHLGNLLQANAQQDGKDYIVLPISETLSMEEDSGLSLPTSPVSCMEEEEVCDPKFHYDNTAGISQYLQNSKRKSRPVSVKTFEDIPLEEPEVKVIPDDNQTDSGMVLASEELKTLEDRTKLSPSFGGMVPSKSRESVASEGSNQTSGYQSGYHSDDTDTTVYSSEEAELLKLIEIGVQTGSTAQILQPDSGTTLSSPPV
Chain of Mitogen-activated protein kinase 1 (Homo sapiens) (P28482 whole entry): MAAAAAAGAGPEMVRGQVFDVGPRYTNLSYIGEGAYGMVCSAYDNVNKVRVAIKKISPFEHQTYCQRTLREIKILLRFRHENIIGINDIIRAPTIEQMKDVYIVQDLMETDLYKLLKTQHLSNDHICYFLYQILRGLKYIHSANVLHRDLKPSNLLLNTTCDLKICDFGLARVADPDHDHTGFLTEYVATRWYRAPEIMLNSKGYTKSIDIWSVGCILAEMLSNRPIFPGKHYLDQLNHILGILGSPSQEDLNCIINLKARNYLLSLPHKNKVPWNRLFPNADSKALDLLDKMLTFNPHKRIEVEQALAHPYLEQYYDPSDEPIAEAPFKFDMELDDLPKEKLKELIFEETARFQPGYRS

Row | IC50 [1] | EC50 [2] | Activity [10] | Compound | CC50 [4] | Ratio [5] | also measured
1 | 44 nM | 2700 nM | – | CS(=O)(=O)Nc1ccc(CCNC(=O)c2ccc(O)c3[nH]c(C4CCCC4)nc23)cc1 | – | – | –
2 | 1600 nM | 3900 nM | 18% | CS(=O)(=O)Nc1ccc(CCNC(=O)c2ccc(O)c3[nH]c(Cc4ccccc4)nc23)cc1 | – | – | –
3 | 140 nM | 4800 nM | – | CS(=O)(=O)Nc1ccc(CCNC(=O)c2ccc(O)c3nc(C4CC4)[nH]c23)cc1 | – | – | –
4 | – | 400 nM | – | CS(=O)(=O)Nc1ccc(CCNC(=O)c2ccc(O)c3[nH]c(-c4ccc(F)cc4)nc23)cc1 | – | – | –
5 | – | – | -0.58% | CS(=O)(=O)Nc1ccc(CCNC(=O)c2ccc(O)c3[nH]c(-c4ccc(F)cc4F)nc23)cc1 | – | – | Activity [6]: 91.4%; Activity [7]: 73.4%; Activity [8]: 93.1%; Activity [9]: 114%; Activity [11]: 49.2%
6 | – | 21000 nM | – | Cc1nc2c(O)ccc(C(=O)NCCc3ccc(NS(C)(=O)=O)cc3)c2[nH]1 | – | – | –
7 | 2800 nM | – | 36% | Cc1ccc(S(=O)(=O)Nc2ccc(CCNC(=O)c3ccc(O)c4[nH]c(Cc5ccccc5)nc34)cc2)cc1 | – | – | –
8 | 110 nM | 25000 nM | – | CS(=O)(=O)Nc1ccc(CCNC(=O)c2ccc(O)c3nc(-c4ccncc4)[nH]c23)cc1 | – | – | –
9 | – | 95 nM | – | Cc1ccc(S(=O)(=O)Nc2ccc(CCNC(=O)c3ccc(O)c4[nH]c(-c5ccc(F)cc5)nc34)cc2)cc1 | 17500 nM | 184 | –
10 | 20 nM | 230 nM | – | CS(=O)(=O)Nc1ccc(CCNC(=O)c2ccc(O)c3[nH]c(-c4ccc(F)cc4Cl)nc23)cc1 | – | – | –
11 | 7 nM | 120 nM | – | CS(=O)(=O)Nc1ccc(CCNC(=O)c2ccc(O)c3[nH]c(-c4ccc(Cl)cc4)nc23)cc1 | 28000 nM | 233 | –
12 | – | 580 nM | – | CS(=O)(=O)Nc1ccc(CCNC(=O)c2ccc(O)c3nc(-c4ccc(F)cc4F)[nH]c23)cc1 | – | – | EC50 [3]: 13 nM

The next lines start with the molecule.

Row | Compound | IC50 [1] | EC50 [2] | Activity [10] | CC50 [4] | Ratio [5] | also measured
13 | O=C(NCCCn1ccnc1)c1ccc(O)c2nc(-c3ccc(F)c(Cl)c3)[nH]c12 | – | 490 nM | – | > 100000 nM | – | EC50 [3]: 100 nM
14 | O=C(NCCCn1ccnc1)c1ccc(O)c2[nH]c(-c3ccc(Cl)cc3Cl)nc12 | 15 nM | 240 nM | – | 45000 nM | 187 | –
15 | O=C(NCCCn1cnc(Cl)c1Cl)c1ccc(O)c2[nH]c(-c3ccc(Cl)cc3Cl)nc12 | – | – | 0% | – | 545 | Activity [6]: 102%; Activity [7]: 97.9%; Activity [8]: 80.7%; Activity [9]: 109%; Activity [11]: 74.9%
16 | NC(=O)c1ccc(O)c2[nH]c(Cc3ccccc3)nc12 | – | – | 75% | – | – | –
17 | O=C(NCCc1ccc([N+](=O)[O-])cc1)c1ccc(O)c2[nH]c(Cc3ccccc3)nc12 | – | – | 32% | – | – | –
18 | Cc1cn(CCCNC(=O)c2ccc(O)c3[nH]c(-c4cccs4)nc23)cn1 | 50 nM | 310 nM | – | > 100000 nM | >322 | –
19 | O=C(NCCCn1cnc(Cl)c1Cl)c1ccc(O)c2nc(-c3ccco3)[nH]c12 | 10 nM | 50 nM | – | 70000 nM | – | EC50 [3]: 40 nM
20 | O=C(NCCCn1cnc(Cl)c1Cl)c1ccc(O)c2[nH]c(-c3ccco3)nc12 | – | – | -1.7% | – | 1400 | Activity [12]: 92.3%; Activity [6]: 70.6%; Activity [13]: 65.2%; Activity [7]: 53.9%; Activity [8]: 74.7%; Activity [9]: 83.6%; Activity [11]: 38.6%
21 | O=C(NCCCn1ccnc1)c1ccc(O)c2[nH]c(-c3ccc(F)c(Cl)c3)nc12 | – | – | 1% | – | >204 | Activity [12]: 83.9%; Activity [6]: 76%; Activity [13]: 71.3%; Activity [7]: 66.5%; Activity [8]: 80%; Activity [9]: 85.3%; Activity [11]: 52.4%
22 | O=C(O)COc1cccc(CCCNC(=O)c2ccc(O)c3nc(-c4ccc(Cl)cc4)[nH]c23)c1 | 31 nM | 250 nM | – | 17000 nM | – | EC50 [3]: 80 nM
23 | O=C(O)COc1cccc(CCCNC(=O)c2ccc(O)c3[nH]c(-c4ccc(Cl)cc4)nc23)c1 | – | – | 0.3% | – | 68 | Activity [12]: 100%; Activity [6]: 104%; Activity [13]: 90.9%; Activity [7]: 80%; Activity [8]: 87.3%; Activity [9]: 54.5%; Activity [11]: 58.6%
24 | CCN1CCN(C(=O)c2ccc(CCNC(=O)c3ccc(O)c4nc(-c5cccs5)[nH]c34)cc2)CC1 | 46 nM | 400 nM | – | 51000 nM | – | –
25 | O=C(NCCCn1cnc(Cl)c1Cl)c1ccc(O)c2nc(-c3ccc(Cl)cc3Cl)[nH]c12 | 6 nM | 110 nM | – | 60000 nM | – | EC50 [3]: 170 nM
26 | CCN1CCN(C(=O)c2ccc(CCNC(=O)c3ccc(O)c4[nH]c(-c5cccs5)nc34)cc2)CC1 | – | – | 0.9% | – | 127 | Activity [12]: 96%; Activity [6]: 80.7%; Activity [13]: 70.4%; Activity [7]: 80.9%; Activity [8]: 72.7%; Activity [9]: 60.8%; Activity [11]: 68.2%
27 | CCCCNC(=O)c1ccc(O)c2[nH]c(Cc3ccccc3)nc12 | – | – | 63% | – | – | –
28 | O=C(NCCCn1cnc(Cl)c1Cl)c1ccc(O)c2[nH]c(-c3cccs3)nc12 | 8 nM | 34 nM | – | > 100000 nM | >2941 | –
29 | O=C(NCc1cccc(O)c1)c1ccc(O)c2[nH]c(Cc3ccccc3)nc12 | – | – | 53% | – | – | –
30 | O=C(NCCc1ccc([N+](=O)[O-])cc1)c1ccc(O)c2nc(Cc3ccccc3)[nH]c12 | 2000 nM | – | – | – | – | –
